Measured values as given in patent publication EP1891105B1, “OXYNTOMODULIN ANALOGUES AND THEIR EFFECTS ON FEEDING BEHAVIOUR” (Imperial Innovations Limited, priority 2005, dated 2012).
Entries after “also recorded” stand apart in the source; their conditions may differ. Non-standard residues stand in square brackets, D forms with d. No end group written: not given here. *: point of attachment. Lauroyl = CCCCCCCCCCCC(=O)*

How the values were obtained:
[1] = Food intake of fasted mice after injection of peptide; format: in vivo, C57BL/6 mice
Protocol: Animals: All animal procedures were approved by the British Home Office Animals (Scientific Procedures) Act 1986 (Project License number 70/5516). Male C57BL/6 mice and male Wistar rats were maintained in individual cages under controlled temperature (21-23 °C) with ad libitum access to standard chow (RM1 diet, SDS Ltd, Witham, Essex, UK) and to water. The light cycle was 14 hours light and 10 hours dark with 'dawn' at 07:00, lights full on at 07:30, 'dusk' at 21:00 with lights off at 21:30. These times were fixed in the animal facility.
All animals were handled almost daily for on average nine days prior to the first study. During the acclimatization period, each animal received two saline injections at least two days apart in order to further acclimatize to the procedure on the study days.
Intra-peritoneal (IP) injections: IP injections were administered to mice via a 0.5 ml syringe with a 29-gauge needle (maximum injection volume 0.1 ml). Maximum volume administered IP was 0.1 ml.
Study protocol: C57BL/6 mice (20-35 g) were injected with the peptide under investigation following a 20-hour fast Wistar rats were injected following a 24-hour fast. A pre-weighed quantity of chow was presented immediately after injection. The remaining food was measured at regular time intervals (e.g. 1, 2, 3,4, 6, 8, 24 and 48 hours following injection) and food intake calculated.

[2] = humans; intravenously infused; cited from earlier work
[3] = humans; 1.8 mg sc three times daily for 28 days; cited from earlier work
[4] = rats, cited from earlier work
[5] = Example 1, 2700 nmol/kg, intervals 0-32 h after injection, vs saline and oxm

D-His1,Ala2,Lys33,Ala38,Ala39,Lys40-lauroyl-oxm(ex15-23)(ex27-33) ([dH]AQGTFTSDYSKYLEEEAVRLFIQWLKNGGPSKNNIAAAK(Lauroyl))
food intake ([1]; Example 54, 10 nmol/kg): exception

DHis2-Ser2-Asp3-oxm(ex15-23)(ex27-33)-Lys33-Ala38,39-Glu40,41-Lys42-Lauroyl ([dH]SDGTFTSDYSKYLEEEAVRLFIQWLKNGGPSKNNIAAAEEK(Lauroyl)) [23/104]
food intake ([1]; Example 57, 6 or 20 nmol/kg): markedly decreased cumulative food intake in comparison to the saline control

oxm(xx15-21): human oxm with residues 15-21 replaced by corresponding exendin-4 residues (HSQGTFTSDYSKYLEEEAVRLFVQWLMNTKRNRNNIA)
food intake [1, 5]: greater and more prolonged appetite suppressant effect

Oxyntomodulin (HSQGTFTSDYSKYLDSRRAQDFVQWLMNTKRNRNNIA) [oxm, 37 amino acid peptide member of the glucagon superfamily]
food intake ([1]; Example 5, 2700nmol/kg, 0-4 h, vs oxm and saline): reduced food intake as expected | food intake ([1]; Example 7, 1000 nmol/kg, 0-24 h): did not quite reach statistical significance | Multiples of food inhibition Factor ([1]; Example 9, food intake during the first hour after injection, activity relative to oxm (1400 nmol/kg)): 1 | appetite [2]: effective appetite suppressant | body weight [3]: significant reduction of body weight | weight gain ([4]; chronic central administration): reduced weight gain | refeeding after a fast ([4]; intracerebroventricular and injection into paraventricular and arcuate nuclei): inhibits refeeding after a fast | body weight gain and adiposity ([4]; twice daily peripheral injections): reduced body weight gain and adiposity

oxm(xx15-18): human oxm with 4 amino acids at positions 15-18 replaced by substitute sequence (HSQGTFTSDYSKYLEEEAAQDFVQWLMNTKRNRNNIA)
food intake [1, 5]: increased and prolonged inhibition of food intake compared to both saline and oxm

B1: oxm(xx15-24): human oxm with residues 15-24 replaced by corresponding exendin-4 residues (peptide)
chain 1: HSQGTFTSDYSKYLEEEAVRLFIEWLMNTKRNRNNIA
chain 2: B1 chain 1
food intake [1, 5]: greater and more prolonged appetite suppressant effect; also recorded: more potent effect on feeding than oxm | food intake ([1]; Example 2, 300 nmol/kg, 0-24 h, vs exendin 4 and saline): reduces food intake only slightly less than exendin over the first 8 hours post-injection | food intake ([1]; Example 27, 100 nmol/kg): the most effective

B2: oxm(xx27-33): oxm with residues 27 to 33 replaced by the sequence Lys Asn Gly Gly Pro Ser Ser (peptide)
chain 1: HSQGTFTSDYSKYLDSRRAQDFVQWLKNGGPSSNNIA
chain 2: B2 chain 1
food intake ([1]; Example 3, 2700 nmol/kg, 0-24 h, vs oxm and saline): increased and prolonged inhibition of food intake compared to both saline and oxm
